# Data taken from ChEMBL document CHEMBL4613256, “Megastigmane Derivatives from the Cladodes of Opuntia humifusa and Their Nitric Oxide Inhibitory Activities in Macrophages” (J Nat Prod, 2020).
# Activity calls are given as the source filed them. The rule behind the calls is not given here.
# Tested on: RAW264.7
# Assay: Cytotoxicity against mouse RAW264.7 cells assessed as reduction in cell viability at 6.25 to 100 uM after 24 hrs by EZ-Cytox cell viability assay
# Type: cell-based
# Conditions: raw264.7, 24 h
row,Compound,Activity
1,"CC1=CC(=O)CC(C)(C)[C@@]1(O)/C=C/[C@H](C)O[C@@H]1O[C@H](CO)[C@@H](O)[C@H](O)[C@H]1O [6S,9S-ROSEOSIDE]",Non-Toxic
2,O=C1c2c(O)cc(O[C@@H]3O[C@H](CO)[C@@H](O)[C@H](O)[C@H]3O)cc2O[C@H](c2ccc(O)c(O)c2)[C@H]1O,Non-Toxic
3,CC(C)(O)c1ccc(CO[C@@H]2O[C@H](CO)[C@@H](O)[C@H](O)[C@H]2O)cc1,Non-Toxic
4,CC1=CC(=O)CC(C)(C)[C@H]1CC[C@@H](O)CO[C@@H]1O[C@H](CO)[C@@H](O)[C@H](O)[C@H]1O,Non-Toxic
5,COc1cc(C(C)=O)ccc1O[C@@H]1O[C@H](CO)[C@@H](O)[C@H](O)[C@H]1O [ANDROSIN],Non-Toxic
6,O=C1C[C@@H](c2cc(O)cc(O)c2)Oc2cc(O)cc(O)c21,Non-Toxic
7,CC1=CC(=O)CC(C)(C)[C@H]1/C=C/[C@@H](CO)O[C@@H]1O[C@H](CO)[C@@H](O)[C@H](O)[C@H]1O,Non-Toxic
8,COc1cc(/C=C/C(=O)O[C@@H]2O[C@H](CO)[C@@H](O)[C@H](O)[C@H]2O)ccc1O,Non-Toxic
9,CC1=CC(=O)CC(C)(C)[C@H]1CC[C@@H](O)CO,Non-Toxic
10,COc1cc([C@H]2OC[C@H]3[C@@H]2CO[C@@H]3c2cc(OC)c(O[C@@H]3O[C@H](CO)[C@@H](O)[C@H](O)[C@H]3O)c(OC)c2)cc(OC)c1O,Non-Toxic
11,O=C1c2c(O)cc(O)cc2O[C@H](c2ccc(O)cc2)[C@H]1O [DIHYDROKAEMPFEROL],Non-Toxic
12,COc1cc(-c2oc3cc(O)cc(O)c3c(=O)c2O[C@@H]2O[C@H](CO)[C@@H](O)[C@H](O)[C@H]2O)ccc1O,Non-Toxic
13,O=C1c2c(O)cc(O)cc2O[C@H](c2ccc(O)c(O)c2)[C@H]1O [(+)-TAXIFOLIN],Non-Toxic
14,COc1cc(/C=C/CO)cc(OC)c1O[C@@H]1O[C@H](CO)[C@@H](O)[C@H](O)[C@H]1O [SYRINGIN],Non-Toxic
15,COc1cc(-c2oc3cc(O)cc(O)c3c(=O)c2O[C@@H]2O[C@H](CO)[C@@H](O)[C@H](O)[C@H]2O)ccc1O[C@@H]1O[C@H](CO)[C@@H](O)[C@H](O)[C@H]1O,Non-Toxic
16,CC1=CC(=O)CC(C)(C)[C@H]1CC[C@@H](CO)O[C@@H]1O[C@H](CO)[C@@H](O)[C@H](O)[C@H]1O,Non-Toxic
17,CC1=CC(=O)CC(C)(C)[C@@]1(O)/C=C/[C@H](CO)O[C@@H]1O[C@H](CO)[C@@H](O)[C@H](O)[C@H]1O,Non-Toxic
18,CC1=CC(=O)CC(C)(C)[C@@H]1/C=C/[C@H](CO)O[C@@H]1O[C@H](CO)[C@@H](O)[C@H](O)[C@H]1O,Non-Toxic
19,COc1cc(/C=C/C(=O)O)cc(OC)c1O[C@@H]1O[C@H](CO)[C@@H](O)[C@H](O)[C@H]1O,Non-Toxic
20,COc1cc(-c2oc3cc(O)cc(O)c3c(=O)c2O[C@@H]2O[C@H](CO[C@@H]3O[C@@H](C)[C@H](O)[C@@H](O)[C@H]3O)[C@@H](O)[C@H](O)[C@H]2O)ccc1O [NARCISSIN],Non-Toxic
21,C[C@@H](/C=C/[C@H]1C(CO)=CC(=O)CC1(C)C)O[C@@H]1O[C@H](CO)[C@@H](O)[C@H](O)[C@H]1O,Non-Toxic

# Tested on: RAW264.7
# Assay: Inhibition of LPS-induced NO production in mouse RAW264.7 cells by Griess reagent based assay
# Type: functional, cell-based
# Conditions: not given
Compound,IC50 [µM],inhibition
O=C1c2c(O)cc(O[C@@H]3O[C@H](CO)[C@@H](O)[C@H](O)[C@H]3O)cc2O[C@H](c2ccc(O)c(O)c2)[C@H]1O,43.8,Dose-dependent effect
O=c1c(O)c(-c2ccc(O)c(O)c2)oc2cc(O)cc(O)c12 [QUERCETIN],22.7,–
O=C1c2c(O)cc(O)cc2O[C@H](c2ccc(O)c(O)c2)[C@H]1O [(+)-TAXIFOLIN],81.6,Dose-dependent effect

# Tested on: RAW264.7
# Assay: Antiinflammatory activity against mouse RAW264.7 cells assessed as reduction in LPS-induced iNOS protein expression at 25 to 100 uM after 24 hrs by Western blot analysis
# Type: functional, cell-based
# Conditions: not given
row,Compound,Activity
1,O=C1c2c(O)cc(O)cc2O[C@H](c2ccc(O)c(O)c2)[C@H]1O [(+)-TAXIFOLIN],Active

# Tested on: RAW264.7
# Assay: Antiinflammatory activity against mouse RAW264.7 cells assessed as reduction in LPS-induced iNOS protein expression at 10 to 50 uM after 24 hrs by Western blot analysis
# Type: functional, cell-based
# Conditions: not given
row,Compound,Activity
1,O=C1c2c(O)cc(O[C@@H]3O[C@H](CO)[C@@H](O)[C@H](O)[C@H]3O)cc2O[C@H](c2ccc(O)c(O)c2)[C@H]1O,Active
